Measurements taken from paper PMC6934184, “Selective DNA-PKcs inhibition extends the therapeutic index of localized radiotherapy and chemotherapy” (The Journal of Clinical Investigation, 2019).

Target: T1, DYRK4 (Homo sapiens, UniProt Q9NR20)
T1 construct: purchased Thermo Fisher Scientific (Life Technologies) SelectScreen
Assay: SelectScreen Z'LYTE
Type: biochemical
Summary of the method: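 Percent values come from Thermo SelectScreen profiling of NU5455, combining activity and binding assays. CSF1R was run in Z'LYTE format at Km app ATP, and CAMK1 in Adapta format with ATP listed at 10.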

T1 sequence (Q9NR20 whole entry): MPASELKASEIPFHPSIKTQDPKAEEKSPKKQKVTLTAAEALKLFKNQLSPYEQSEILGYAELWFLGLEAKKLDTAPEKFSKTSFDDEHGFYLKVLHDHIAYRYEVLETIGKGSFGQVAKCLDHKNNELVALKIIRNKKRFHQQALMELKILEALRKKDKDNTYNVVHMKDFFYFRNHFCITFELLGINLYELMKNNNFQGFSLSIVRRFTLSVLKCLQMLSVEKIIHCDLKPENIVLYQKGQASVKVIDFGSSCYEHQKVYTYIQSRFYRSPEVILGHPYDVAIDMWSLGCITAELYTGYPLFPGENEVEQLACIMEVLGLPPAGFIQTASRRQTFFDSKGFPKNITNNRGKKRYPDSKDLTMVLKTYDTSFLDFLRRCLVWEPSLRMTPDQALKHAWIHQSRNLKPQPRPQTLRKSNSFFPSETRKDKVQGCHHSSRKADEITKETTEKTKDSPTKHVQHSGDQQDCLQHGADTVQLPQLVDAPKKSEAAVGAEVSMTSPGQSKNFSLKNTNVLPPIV

SMILES: CN(C(=O)CN1CCOCC1)c1ccc2sc3c(-c4cccc5c(=O)cc(N6CC7CCC(C6)O7)oc45)cccc3c2c1 [NU5455]
- inhibition at 1 µM: 0.3%
